Experimental data taken from article PMC3448056, “2-Benzamido-N-(1H-benzo[d]imidazol-2-yl)thiazole-4-carboxamide derivatives as potent inhibitors of CK1δ/ε” (Amino Acids, 2012).
Values joined by “and” are separate entries in the source; they are usually repeats but may differ in a detail not shown here. Identical values can stand only once.

Columns and labels:
Assay type in all cases: biochemical
CK1δkd = molecular target: T1, CK1δkd (Rattus norvegicus, UniProt Q06486); assay: In vitro kinase assay, CK1δ kinase domain; conditions: for activity against CK1δkd (in words, SAR discussion): kinase assays using a CK1 specific substrate
T1 construct: Recombinant CK1δ kinase domain (CK1δkd, NEB, Frankfurt am Main, Germany); purchased NEB, Frankfurt am Main, Germany
T1 sequence (Q06486 9-277 limits assumed): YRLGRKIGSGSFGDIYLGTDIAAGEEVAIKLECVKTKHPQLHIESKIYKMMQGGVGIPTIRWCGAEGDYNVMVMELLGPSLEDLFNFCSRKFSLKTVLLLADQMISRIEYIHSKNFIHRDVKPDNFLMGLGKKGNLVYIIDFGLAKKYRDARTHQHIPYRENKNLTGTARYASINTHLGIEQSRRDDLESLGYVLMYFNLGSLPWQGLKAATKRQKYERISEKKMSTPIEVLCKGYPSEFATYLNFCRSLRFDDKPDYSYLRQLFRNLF

GST-rat CK1δ = molecular target: T2, GST-rat CK1δ (Rattus norvegicus, UniProt Q06486); assay: In vitro kinase assay, GST-rat CK1δ
T2 construct: made in house; host or cells: bacteria (pGEX-2T)
T2 sequence (Q06486 whole entry): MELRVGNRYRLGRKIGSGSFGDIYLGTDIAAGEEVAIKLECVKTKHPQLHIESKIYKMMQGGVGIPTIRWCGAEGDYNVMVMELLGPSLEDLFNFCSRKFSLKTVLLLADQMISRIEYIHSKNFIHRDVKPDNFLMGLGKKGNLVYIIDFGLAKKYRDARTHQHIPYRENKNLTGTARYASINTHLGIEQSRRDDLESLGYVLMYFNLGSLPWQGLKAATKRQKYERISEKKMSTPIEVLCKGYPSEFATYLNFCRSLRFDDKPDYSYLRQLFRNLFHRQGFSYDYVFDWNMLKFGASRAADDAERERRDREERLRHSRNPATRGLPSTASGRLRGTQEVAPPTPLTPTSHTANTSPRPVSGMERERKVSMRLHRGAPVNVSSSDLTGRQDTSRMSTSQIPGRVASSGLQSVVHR

human CK1ε = molecular target: T3, human CK1ε (Homo sapiens, UniProt P49674); assay: In vitro kinase assay, CK1ε
T3 construct: purchased Invitrogen, Karlsruhe, Germany
T3 sequence (P49674 whole entry): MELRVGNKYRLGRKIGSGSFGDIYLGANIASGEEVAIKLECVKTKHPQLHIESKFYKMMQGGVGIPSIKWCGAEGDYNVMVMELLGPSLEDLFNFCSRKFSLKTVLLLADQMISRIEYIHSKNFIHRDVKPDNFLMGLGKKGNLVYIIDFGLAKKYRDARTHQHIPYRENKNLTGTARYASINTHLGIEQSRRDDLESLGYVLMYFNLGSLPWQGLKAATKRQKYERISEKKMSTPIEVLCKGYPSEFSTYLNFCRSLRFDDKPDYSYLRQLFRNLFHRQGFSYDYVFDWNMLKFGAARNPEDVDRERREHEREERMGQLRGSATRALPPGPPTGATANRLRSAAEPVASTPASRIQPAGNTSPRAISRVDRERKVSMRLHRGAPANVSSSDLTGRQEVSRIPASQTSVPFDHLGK

GST-mouse CK1δTV1 = molecular target: T4, GST-mouse CK1δTV1 (Mus musculus, UniProt Q9DC28); assay: In vitro kinase assay, GST-mouse CK1δTV1; conditions: 0.01 mM ATP, substrate GST-mouse p53^1-64; mean ± SD; read-out: IC50 (μM) GST-CK1δ TV1
T4 construct: made in house; host or cells: bacteria (pGEX-2T)
T4 sequence (Q9DC28 whole entry): as the sequence (Q06486 whole entry) above
From the text: (§1) CK1δTV1 and 2 (transcription variants 1 and 2) were PCR amplified from mouse cDNA (5′-primer TV1 and 2: 5′-[…]-3′, 3′-primer TV1: 5′-[…]-3′, 3′-primer TV2: 5′-[…]-3′) and cloned into pcDNA3.1/V5-His© TOPO® TA cloning vector (Invitrogen, Karlsruhe, Germany) before being subcloned into pGEX-2T expression vector via BamHI to generate plasmids pGEX-2T-mouse CK1δTV1 (FP1170) and pGEX-2T-mouse CK1δTV2 (FP1171).
(§2) Expression and purification of the GST-fusion proteins GST-mouse p53^1–64 (FP267), GST-rat CK1δ (FP449), GST-rat CK1δ^M82F (FP1153), GST-mouse CK1δTV1 (FP1170), and GST-mouse CK1δTV2 (FP1171) was carried out as described elsewhere (Wolff et al. [2005]). Expression of fusion proteins FP1170 and 1171 was either performed at 37°C for 2 h, or at 15°C for 14 h. FP449 and FP1153 were always expressed at 15°C for 14 h.
(§3) In vitro kinase assays were carried out in the presence of various potential inhibitors of CK1δ at an ATP concentration of 0.01 mM and dimethyl sulfoxide (DMSO) solvent control as described previously (Knippschild et al. [1996]). Where indicated higher ATP concentrations (0.05, 0.1, 0.25 and 0.5 mM) were used. The fusion protein GST-mouse p53^1−64 (FP267) was used as substrate. Recombinant CK1δ kinase domain (CK1δkd, NEB, Frankfurt am Main, Germany), GST-rat CK1δ (FP449), GST-rat CK1δ^M82F (FP1153), GST-mouse CK1δTV1, GST-mouse CK1δTV2 and recombinant human CK1ε (Invitrogen, Karlsruhe, Germany) were used as sources of enzyme. Phosphorylated proteins were separated by SDS-PAGE and the protein bands were visualized on dried gels by autoradiography. The phosphorylated protein bands were excised and quantified by Cherenkov counting.

GST-mouse CK1δTV2 = molecular target: T5, GST-mouse CK1δTV2 (Mus musculus, UniProt Q9DC28); assay: In vitro kinase assay, GST-mouse CK1δTV2; conditions: 0.01 mM ATP, substrate GST-mouse p53^1-64; mean ± SD; read-out: IC50 (μM) GST-CK1δ TV2
T5 construct: made in house; host or cells: bacteria (pGEX-2T)
T5 sequence (Q9DC28 1-409 isoform Q9DC28-2): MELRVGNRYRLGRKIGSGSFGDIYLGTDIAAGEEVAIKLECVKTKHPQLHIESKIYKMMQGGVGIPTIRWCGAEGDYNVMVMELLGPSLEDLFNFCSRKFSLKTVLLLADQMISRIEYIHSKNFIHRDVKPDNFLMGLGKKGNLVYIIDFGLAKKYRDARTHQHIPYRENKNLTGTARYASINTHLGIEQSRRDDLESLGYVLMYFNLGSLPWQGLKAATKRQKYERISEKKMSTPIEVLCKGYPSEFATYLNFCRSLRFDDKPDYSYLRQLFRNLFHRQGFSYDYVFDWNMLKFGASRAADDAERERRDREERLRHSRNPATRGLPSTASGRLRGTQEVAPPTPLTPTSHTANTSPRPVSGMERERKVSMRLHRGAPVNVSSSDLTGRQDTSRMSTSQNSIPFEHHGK
From the text: as §1, §2, §3

GST-rat CK1δ^M82F = molecular target: T6, GST-rat CK1δ^M82F (Rattus norvegicus, UniProt Q06486, M82F); assay: In vitro kinase assay, gatekeeper mutant; conditions: inhibitor at its determined IC50 concentration (Fig. 7)
T6 construct: made in house; host or cells: bacteria (pGEX-2T)
T6 sequence (Q06486 1-415 M82F): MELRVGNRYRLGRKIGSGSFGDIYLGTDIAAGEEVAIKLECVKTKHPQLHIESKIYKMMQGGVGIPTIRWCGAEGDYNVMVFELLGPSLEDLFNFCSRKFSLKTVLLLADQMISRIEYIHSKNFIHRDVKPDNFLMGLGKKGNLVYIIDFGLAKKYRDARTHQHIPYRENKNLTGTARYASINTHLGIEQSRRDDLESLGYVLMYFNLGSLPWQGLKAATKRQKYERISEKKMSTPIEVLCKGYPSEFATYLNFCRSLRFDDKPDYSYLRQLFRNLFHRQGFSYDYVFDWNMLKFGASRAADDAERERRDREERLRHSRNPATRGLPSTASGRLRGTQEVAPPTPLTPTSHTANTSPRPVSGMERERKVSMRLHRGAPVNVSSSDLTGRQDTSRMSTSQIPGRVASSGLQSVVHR
Procedure: For the expression of wt rat CK1δ and rat CK1δ^M82F as glutathione S-transferase fusion proteins the plasmids pGEX-2T-CK1δ (FP449) (Knippschild et al. [1997]) and pGEX-2T-CK1δ^M82F (FP1153) (Peifer et al. [2009]) were used.
as §2, §3
Previously it has been shown that methionine 82 plays an important role as gatekeeper residue in the docking mode of isoxazoles to the ATP binding pocket since mutation of methionine 82 to phenylalanine blocks binding of this class of CK1δ specific inhibitors (Peifer et al. [2009]) while still binding ATP. Therefore, we now analyzed the effects of exchanging methionine 82 to phenylalanine on the ability of compounds 4, 5 and 6 to inhibit CK1δ activity.

[1] = 0.01 mM ATP, substrate GST-mouse p53^1-64, mean ± SD
[2] = symbol, tested range 10–0.005 μM

SMILES | IC50 (CK1δkd; [1]) | activity against CK1δkd (in words, SAR discussion) (CK1δkd) | IC50 (GST-rat CK1δ; [1]) [µM] | further results
COC(=O)c1ccc2[nH]c(NC(=O)c3csc(NC(=O)c4ccccc4OC(F)(F)F)n3)nc2c1 [Compound 1, Methyl 2-(2-(2-(trifluoromethoxy)benzamido)-thiazole-4-carboxamido)-1H-benzo[d]imidazole-5-carboxylate] | 0.865 ± 0.14 µM | diminished activity | 1.97 ± 0.85 | IC50 (human CK1ε; [1]): 0.496 ± 0.1 µM
O=C(Nc1nc2ccc(C(F)(F)F)cc2[nH]1)c1csc(NC(=O)c2ccco2)n1 [Compound 7, 2-(Furan-2-carboxamido)-N-(6-(trifluoromethyl)-1H-benzo[d]imidazol-2-yl)thiazole-4-carboxamide] | 0.542 ± 0.05 µM |  | 1.04 ± 0.31 | 
CS(=O)(=O)c1ccc2[nH]c(NC(=O)c3csc(NC(=O)c4ccccc4OC(F)(F)F)n3)nc2c1 [Compound 2, N-(5-(Methylsulfonyl)-1H-benzo[d]imidazol-2-yl)-2-(2-(trifluoromethoxy)benzamido)thiazole-4-carboxamide] | 1.23 ± 0.41 µM | diminished activity | 5.19 ± 1.14 | 
O=C(Nc1nc2ccccc2s1)c1csc(NC(=O)c2ccccc2OC(F)(F)F)n1 [Compound 9, 2-(2-Trifluoromethoxy-benzoylamino)-thiazole-4-carboxylic acid benzothiazol-2-ylamide] | 1.12 µM and 0.73 µM |  | 1.19 ± 0.39 | 
Cn1c(NC(=O)c2csc(NC(=O)c3ccccc3OC(F)(F)F)n2)nc2ccccc21 [Compound 3, N-(1-Methyl-1H-benzo[d]imidazol-2-yl)-2-(2-(trifluoromethoxy)benz-amido)thiazole-4-carboxamide] |  | lost |  | IC50 (CK1δkd; [2]): > 10 µM; IC50 (GST-rat CK1δ; [2]): > 10 µM

More lines, in order of falling IC50 (GST-rat CK1δ; [1]), values ahead:

IC50 (CK1δkd; [1]) | activity against CK1δkd (in words, SAR discussion) (CK1δkd) | IC50 (GST-rat CK1δ; [1]) [µM] | SMILES | further results
0.647 ± 0.04 µM | kinase activity was even more decreased | 0.991 ± 0.21 | O=C(Nc1nc2ccccc2o1)c1csc(NC(=O)c2ccccc2OC(F)(F)F)n1 [Compound 10, N-(Benzo[d]oxazol-2-yl)-2-(2-(trifluoromethoxy)benzamido)thiazole-4-carboxamide] | 
1.12 ± 0.19 µM |  | 0.935 ± 0.55 | O=C(Nc1nc2ccccc2[nH]1)c1csc(NC(=O)c2ccccc2OC(F)(F)F)n1 [Compound 8, N-(1H-Benzo[d]imidazol-2-yl)-2-(2-(trifluoromethoxy)benzamido)thiazole-4-carboxamide] | 
0.409 ± 0.12 µM |  | 0.326 ± 0.19 | O=C(Nc1nc(C(=O)Nc2nc3ccc(C(F)(F)F)cc3[nH]2)cs1)c1ccncc1 [Compound 4, 2-(Isonicotinamido)-N-(6-(trifluoromethyl)-1H-benzo[d]imidazol-2-yl)thiazole-4-carboxamide] | inhibition of CK1δkd in initial screen (CK1δkd; inhibitor 10 μM, 10 μM ATP (Fig. 1a)): significant inhibition; mode of inhibition (CK1δkd; inhibitor at IC50 concentration, ATP 0.01-0.5 mM (Fig. 6)): ATP competitive inhibitors; IC50 (GST-mouse CK1δTV1): 0.18 ± 0.03 µM; IC50 (GST-mouse CK1δTV2): 0.505 ± 0.04 µM; kinase activity of GST-CK1δ^M82F in comparison with inhibition of GST-wt CK1δ (GST-rat CK1δ^M82F): much more affected; GST-wt CK1δ activity in the presence of inhibitor (GST-rat CK1δ; inhibitor at its determined IC50 concentration (Fig. 7)): clearly decreased; inhibition of CK1ε in initial screen (human CK1ε; inhibitor 10 μM, 10 μM ATP (Fig. 1b)): significant inhibition
